{"source": "patent EP2545914A1", "about": "“2-amino-2-oxoethyl trans-3-[5-(6-methoxy-naphtalen-1-yl)-1,3-dioxan-2-yl]propyl-carbamate for use in the treatment of persistent cancer pain” (SANOFI, priority 2011, dated 2013)", "key": {"[1]": {"test_system": "UDP-glucuronosyl transferase", "type": "in vitro ADME, human", "conditions": "for % Control (M6G formation) / % Control (M3G formation): Morphine 2mM, protein 0.5 mg/mL, 30 min", "protocol": "Incubations were conducted in 2-mL polypropylene centrifuge tubes. Incubation mixtures containing HLM suspension and alamethicin (25 µg/mL) in 0.1 M potassium phosphate buffer (pH 7.4), were placed on wet ice for 5 min. […] Reactions were initiated by the addition of 50 mM UDPGA spiking solution. […] Samples were incubated aerobically in a water bath at 37 °C for the required amount of time and reactions terminated by the addition of 400 µL of the appropriate quench solution. The 2-mL centrifuge tubes were vortex mixed and stored in a -20 °C freezer for ca. 20 min prior to centrifugation at 13.3 x g, 4 °C for 10 min. Supernatants were analyzed by LC-MS/MS for morphine metabolites formation.\nUGT-dependent activities were determined by monitoring the formation of enzyme specific metabolites from marker substrates. […] Incubation with selective inhibitors (positive control) was performed at a concentration above their established IC50 for the confirmation of enzyme activity and inhibitory effects.\nIncubations were performed in 2-mL centrifuge tubes. Incubation mixtures containing HLM suspension and alamethicin (25 µg/mL) in 0.1 M potassium phosphate buffer (pH 7.4), were placed on wet ice for 5 min. […] Reactions were initiated by the addition of UDPGA. The final incubation mixture contained 0.5 mg/mL HLM, 2 mM MgCl2, 5 mM UDPGA, various concentration of Compound A or a selective inhibitor. Samples were incubated aerobically in a water bath at 37 °C for 30 min. The incubation systems were terminated by the addition of a 400-µL quenching solution. The 2-mL centrifuge tubes were vortex mixed and stored in a -20 °C freezer for approximately 20 min prior to centrifugation at 13.3 x g, 4 °C for 10 min. Supernatants were analyzed by LC-MS/MS.\nPercent of Control = Cmet÷Ccontrol × 100% [formula] • Cmet: Concentration of the metabolite in the incubations in the presence of Compound A or selective inhibitor • Ccontrol: Concentration of the enzyme-specific metabolite in the incubations in the absence of Compound A and selective inhibitor • The IC50 for Compound A was estimated by non-linear regression analysis of individual sets of percent inhibition values using GraphPad Prism 5."}, "[2]": {"test_system": "mice inoculated with BO2 breast carcinoma cells", "test": "Tactile allodynia (Dynamic Plantar Aesthesiometer) in a model of bone metastatic cancer pain induced by BO2 cells", "type": "in vivo, female BALB/cByJ Ico-nu/nu mice", "conditions": "for paw withdrawal thresholds to non-noxious stimulations versus vehicle-treated animals: p<0.0001; for Reversal of allodynia (%): T2h; for Delta values (Delta PWT): T2h minus T0", "protocol": "The model of cancer pain MDA-MB-231 breast cancer cells cause the development of highly vascularized skeletal lesions in animals. Here, we chose to perform a model of bone metastasis induced by BO2 cells, a sub-clone of MDA-MB-231 cancer cells expressing the bioluminescent jellyfish protein (green fluorescent protein). BO2 cells were inoculated into the tail of nude mice. […] In our study, BO2 invasion of the hind paws was evaluated by combining both fluorescence imaging and X-Ray radiology with evaluation of allodynic-like behavior in the tumor-bearing hind paws. The aim of the study was to assess the anti-allodynic activity of Compound A in a model of bone metastatic cancer pain in mice, at the time when allodynia-like symptoms are fully developed.\nNon-fasted female BALB/cByJ Ico-nu/nu mice (aged 4 weeks at the beginning of the experimental phase, Charles River Laboratories, L'Arbresle, France) were used for this study. One week before starting the experiment and to enable full acclimatization, mice were caged in groups of 10 animals per cage. They were housed in macrolon type III cages with filter hoods in a sterile room in which the air was continuously filtered to avoid any contamination. The sterility of the room was checked once a month and the cages were sterilized at 121°C for 30 minutes before use and changed twice a week. Room temperature was maintained at 22°C, and relative humidity at 60% ±10%. The animals were kept under a natural daylight cycle. The animals were fed with RO3 irradiated at 10 kGy, purchased from UAR (91360 Epinay sur Orge, France), and water sterilized at 121°C for 30 minutes. Water consumption was visually monitored daily and the bottles were changed twice a week. Food and water were given ad libitum. The animal bedding was produced by UAR and sterilized at 121°C for 30 minutes and renewed twice a week. One day before the beginning of the study, mice were implanted in the back with an electronic chip for identification purposes. The day of BO2 breast carcinoma inoculation into the tail vein, mice were placed in groups of 9 or 8 animals per cage. Tumor progression (fluorescence imaging +X-Ray radiology) associated with evoked pain behavior were measured at least once a week during the entire study (data available on request). This allowed us to ensure that only mice with tumor progression and pain-like behavior were selected to enter in the testing procedure.\nCompound A as a base was prepared extemporaneously as follows: the compound was weighed and 0.5% of Tween 80 was added, followed by addition of 0.6% Methyl Cellulose. The resulting suspensions were maintained at room temperature under magnetic stirring until the administration. Compound A was administered via oral gavage in a volume of 10 mL/kg, once daily for 7 days. On the first day of treatment, Compound A was administered at 30 mg/kg. From day 2 to day 7, Compound A was administered at 10 mg/kg.\nFor the present study, 2 groups of 8 mice receiving the BO2 breast carcinoma cells and 1 group of 8 mice (control animals) receiving only the culture medium were used (Table 1.1). Table 1.1 - Design of the study\nNo animals were excluded for this study. However, one mouse died in one of the BO2-inoculated groups (mouse found dead in the cage on day 7), while no mice died in the control group (n = 8). No randomization was performed at the beginning of the experiment and mice were treated by cage. A seven day treatment with Compound A or vehicle was performed with evaluation of evoked pain at day 1, day 3 and day 7 post-treatment. As bone metastases were distributed in both hind-paws, we decided at the beginning of the study to arbitrarily measure pain-like behavior evoked by a stimulus in only one hind-paw (the right hind-paw). Pain-like behaviors before and after treatment with vehicle or Compound A were evaluated during 3 sessions (i.e. on day 1, day 3 and day 7). […]"}}, "note": "Where two headings read alike, the source gives them in different places."}
{"smiles": "CC(=O)N1CCN(c2ccc(OCC3COC(Cn4ccnc4)(c4ccc(Cl)cc4Cl)O3)cc2)CC1", "note": "(centres unmarked) [ketoconazole, reference compound]", "values": [{"measurement": "inhibition of M6G activity", "setting": "[1]; positive control, same conditions (2 mM morphine, HLM 0.5 mg/mL, 30 min)", "value": "≥ 98.5", "unit": "%"}]}
{"smiles": "COc1ccc2c(cccc2[C@H]2CO[C@H](CCCNC(=O)OCC(N)=O)OC2)c1", "note": "[Compound A, 2-amino-2-oxoethyl trans-3-[5-(6-methoxy-naphtalen-1-yl)-1,3-dioxan-2-yl]propyl-carbamate]", "values": [{"measurement": "paw withdrawal thresholds to non-noxious stimulations versus vehicle-treated animals", "setting": "[2]; 10 mg/kg PO once daily, day 3 and day 7", "value": "significantly higher"}, {"measurement": "Reversal of allodynia (%)", "setting": "[2]; Day 3, 10 mg/kg PO", "value": "45.06 ±3.11", "unit": "%"}, {"measurement": "Delta values (Delta PWT)", "setting": "[2]; Day 3, 10 mg/kg PO", "value": "0.78 ±0.06"}, {"measurement": "Reversal of allodynia (%)", "setting": "[2]; Day 7, 10 mg/kg PO", "value": "41.87 ±4.01", "unit": "%"}, {"measurement": "Delta values (Delta PWT)", "setting": "[2]; Day 7, 10 mg/kg PO", "value": "0.79 ±0.08"}, {"measurement": "evoked-pain induced by bone metastases in the hind-paw", "setting": "[2]; acute oral dosing, allodynia fully installed", "value": "significantly reversed"}, {"measurement": "Reversal of allodynia (%)", "setting": "[2]; day 1, 30 mg/kg PO, Mean ±SEM", "value": "68.74 ±8.99", "unit": "%"}, {"measurement": "Delta values (Delta PWT)", "setting": "[2]; day 1, 30 mg/kg PO, Mean ±SEM", "value": "1.04 ±0.13"}, {"measurement": "PWT values at T0", "setting": "[2]; day 1, T0 (baseline before administration), group dosed 30 mg/kg PO, Mean ±SEM", "value": "1.815 ±0.065", "unit": "gram"}, {"measurement": "PWT values at T0", "setting": "[2]; day 7, T0 (before that day's administration), 10 mg/kg PO once daily, Mean ±SEM", "value": "1.728 ±0.050", "unit": "gram"}, {"measurement": "paw withdrawal thresholds to non-noxious stimulations versus vehicle-treated animals", "setting": "[2]; first day, 30 mg/kg PO", "value": "significantly higher"}, {"measurement": "tolerance in analgesic effect", "setting": "[2]; repeated (7 days) administration", "value": "did not induce tolerance"}, {"measurement": "IC50 (M3G and M6G formation)", "setting": "[1]; 2 mM morphine, Compound A 0.5 to 250 µM, HLM", "value": "could not be estimated"}, {"measurement": "% Control (M6G formation)", "setting": "[1]; Compound A 0.5 µM", "value": 96.9, "unit": "%"}, {"measurement": "% Control (M6G formation)", "setting": "[1]; Compound A 1.0 µM", "value": 94.4, "unit": "%"}, {"measurement": "% Control (M6G formation)", "setting": "[1]; Compound A 5.0 µM", "value": 102.4, "unit": "%"}, {"measurement": "% Control (M6G formation)", "setting": "[1]; Compound A 10 µM", "value": 110.4, "unit": "%"}, {"measurement": "% Control (M6G formation)", "setting": "[1]; Compound A 25 µM", "value": 105.8, "unit": "%"}, {"measurement": "% Control (M6G formation)", "setting": "[1]; Compound A 50 µM", "value": 108.3, "unit": "%"}, {"measurement": "% Control (M6G formation)", "setting": "[1]; Compound A 100 µM", "value": 97.4, "unit": "%"}, {"measurement": "% Control (M6G formation)", "setting": "[1]; Compound A 250 µM", "value": 96.5, "unit": "%"}, {"measurement": "% Control (M3G formation)", "setting": "[1]; Compound A 0.5 µm", "value": 97.7, "unit": "%"}, {"measurement": "% Control (M3G formation)", "setting": "[1]; Compound A 1.0 µm", "value": 96.2, "unit": "%"}, {"measurement": "% Control (M3G formation)", "setting": "[1]; Compound A 5.0 µm", "value": 106.0, "unit": "%"}, {"measurement": "% Control (M3G formation)", "setting": "[1]; Compound A 10 µm", "value": 107.9, "unit": "%"}, {"measurement": "% Control (M3G formation)", "setting": "[1]; Compound A 25 µm", "value": 108.3, "unit": "%"}, {"measurement": "% Control (M3G formation)", "setting": "[1]; Compound A 50 µm", "value": 105.7, "unit": "%"}, {"measurement": "% Control (M3G formation)", "setting": "[1]; Compound A 100 µm", "value": 92.7, "unit": "%"}, {"measurement": "% Control (M3G formation)", "setting": "[1]; Compound A 250 µm", "value": 94.2, "unit": "%"}, {"measurement": "drug interaction with morphine", "setting": "[1]; according to in vitro results", "value": "no significant drug interaction"}, {"measurement": "inhibition of morphine metabolism", "setting": "[1]; human liver microsomes, M3G and M6G formation", "value": "no inhibition"}]}
